Experimental data: patent publication US20160083374A1, “AMORPHOUS FORM OF CANAGLIFLOZIN AND PROCESS FOR PREPARING THEREOF” (CADILA HEALTHCARE LIMITED, priority 2013, published 2016)

Tests used:
[1] = cited from earlier work
[2] = Solid-form stability under normal stability conditions; format: physicochemical; details: amorphous canagliflozin obtained by removal of solvent per the invention
Source text: The obtained amorphous canagliflozin is stable under normal stability conditions and substantially free from residual solvent. Therefore, there is no physical change observed from amorphous form to crystalline form during the stability.
In another general aspect, the stable amorphous form of canagliflozin, is stored under nitrogen atmosphere and packed in a double polythene bag tied with a thread, keeping primary packing containing amorphous canagliflozin or salts thereof inside a black color polyethylene bag containing oxygen busters and sealing it, placing above the double polyethylene bag inside a triple laminated bag optionally containing oxygen busters and sealing it, and placing the sealed triple laminated bag inside a closed high density polyethylene (HDPE) container and storing in controlled environment chamber at about 25° C. and/or 40° C.

- stability of amorphous form (change from amorphous to crystalline form) [2]: stable
Compound: Cc1ccc([C@@H]2O[C@H](CO)[C@@H](O)[C@H](O)[C@H]2O)cc1Cc1ccc(-c2ccc(F)cc2)s1 [amorphous canagliflozin]
- physical change between sorption/desorption cycles ([1]; amorphous canagliflozin of US '487 A1, humidity increased from 70% to 90% RH): conversion or partial conversion from the amorphous state to a crystalline state
- hygroscopicity by DVS ([1]; amorphous canagliflozin prepared by the process of US '487 A1 (toluene solution into n-heptane)): hygroscopic
